The target of this test is T1, catL (cathepsin L; rh catL) (Homo sapiens, UniProt P07711).
T1 construct: gene CTSL; incubated on ice 15 min in assay buffer pH 6.0 before use
Put plainly: fluorogenic protease activity assay. The test is classed as biochemical.

Two molecules from publication PMC9231362 (Viruses, 2022) can be followed below.

The structures appear in SMILES notation.

T1 sequence (P07711 114-288): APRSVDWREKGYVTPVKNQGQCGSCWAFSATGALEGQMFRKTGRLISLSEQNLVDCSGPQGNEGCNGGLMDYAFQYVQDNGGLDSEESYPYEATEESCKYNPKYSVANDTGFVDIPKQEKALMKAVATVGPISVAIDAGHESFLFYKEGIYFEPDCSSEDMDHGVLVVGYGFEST
T1 sequence (P07711 292-333): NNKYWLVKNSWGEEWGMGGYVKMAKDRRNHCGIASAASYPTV

The molecule `C[C@@H]1[C@H](O)[C@@H](C)/C=C/C=C/CC/C=C/C=C/C=C/C=C/[C@H](O[C@@H]2O[C@H](C)[C@@H](O)[C@H](N)[C@@H]2O)C[C@@H]2O[C@](O)(C[C@@H](O)[C@H](O)CC[C@@H](O)C[C@@H](O)C[C@@H](O)CC(=O)O[C@H]1C)C[C@H](O)[C@H]2C(=O)O` [Nystatin] displayed an IC50 of roughly 2 µM.

As to `CO[C@H]1/C=C/O[C@@]2(C)Oc3c(C)c(O)c4c(O)c(c(/C=N/N5CCN(C6CCCC6)CC5)c(O)c4c3C2=O)NC(=O)/C(C)=C\C=C\[C@H](C)[C@H](O)[C@@H](C)[C@@H](O)[C@@H](C)[C@H](OC(C)=O)[C@@H]1C` [Rifapentine], the half-maximal inhibitory concentration (IC50) is roughly 30 µM.

As usually defined, the IC50 is the midpoint of a concentration-inhibition curve. Low values mean greater potency in that assay, high ones weaker potency in that assay.
